Test results taken from US20260022097A1 (priority 2022, published 2026).
Where two headings read alike, the source gives them in different places.

Tests used:
[1] = target: kappa-opioid receptor (KOR) (Homo sapiens, UniProt P41145); assay: inhibition of forskolin-induced cAMP accumulation assay, KOR antagonist mode versus U50488H; format: cell-based; conditions: for IC50: read-out: KOR Antagonist IC50+/-SEM
mu-opioid receptor (MOR) = mu-opioid receptor (MOR) (Homo sapiens, UniProt P35372); assay: cell-based; format: cell-based; conditions: for Emax: read-out: MOR Agonist % Emax+/-SEM; for EC50: read-out: MOR Agonist EC50+/-SEM
Sequence of mu-opioid receptor (MOR) (P35372 whole entry): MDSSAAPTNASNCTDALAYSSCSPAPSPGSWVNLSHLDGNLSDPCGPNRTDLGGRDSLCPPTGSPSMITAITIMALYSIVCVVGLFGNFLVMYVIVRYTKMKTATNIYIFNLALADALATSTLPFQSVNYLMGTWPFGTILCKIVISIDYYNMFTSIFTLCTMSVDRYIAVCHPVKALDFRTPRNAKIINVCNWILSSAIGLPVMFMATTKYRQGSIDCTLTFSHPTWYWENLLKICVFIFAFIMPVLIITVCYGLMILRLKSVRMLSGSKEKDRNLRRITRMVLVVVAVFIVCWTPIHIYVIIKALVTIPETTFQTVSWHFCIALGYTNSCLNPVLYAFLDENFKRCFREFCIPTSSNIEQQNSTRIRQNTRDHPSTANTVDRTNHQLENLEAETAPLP

[2] = target: T1, delta-opioid receptor (DOR) (Homo sapiens, UniProt P41143); assay: inhibition of forskolin-induced cAMP accumulation assay, DOR antagonist mode versus SNC80; format: cell-based; conditions: for IC50: read-out: DOR Antagonist IC50+/-SEM
T1 sequence (P41143 whole entry): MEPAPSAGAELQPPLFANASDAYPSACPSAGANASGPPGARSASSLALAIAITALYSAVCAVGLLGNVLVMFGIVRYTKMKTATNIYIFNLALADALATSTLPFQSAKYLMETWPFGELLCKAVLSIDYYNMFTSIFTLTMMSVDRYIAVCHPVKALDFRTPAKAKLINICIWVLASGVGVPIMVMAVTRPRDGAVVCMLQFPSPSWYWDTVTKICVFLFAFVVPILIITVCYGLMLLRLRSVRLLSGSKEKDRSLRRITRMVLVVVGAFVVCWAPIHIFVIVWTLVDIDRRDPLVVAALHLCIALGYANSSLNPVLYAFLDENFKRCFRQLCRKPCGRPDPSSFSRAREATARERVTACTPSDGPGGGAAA

[3] = target: T1, delta-opioid receptor (DOR); assay: inhibition of forskolin-induced cAMP accumulation assay, DOR agonist mode; format: cell-based; conditions: for EC50: read-out: DOR Agonist EC50+/-SEM; for Emax: read-out: DOR Agonist % Emax+/-SEM (converted)
squirrel monkeys [4] = assay: ventilatory ratio / respiratory effects in squirrel monkeys; format: in vivo
squirrel monkeys [5] = assay: antinociceptive effects in vivo in squirrel monkeys
MOR [6] = target: T2, MOR (Homo sapiens, UniProt P35372); assay: binding affinity at MOR
T2 sequence (P35372 whole entry): as the sequence (P35372 whole entry) above

MOR [7] = target: T2, MOR; assay: GTP assay (G-protein activation) at MOR; format: biochemical

Sequence of kappa-opioid receptor (KOR) (P41145 whole entry): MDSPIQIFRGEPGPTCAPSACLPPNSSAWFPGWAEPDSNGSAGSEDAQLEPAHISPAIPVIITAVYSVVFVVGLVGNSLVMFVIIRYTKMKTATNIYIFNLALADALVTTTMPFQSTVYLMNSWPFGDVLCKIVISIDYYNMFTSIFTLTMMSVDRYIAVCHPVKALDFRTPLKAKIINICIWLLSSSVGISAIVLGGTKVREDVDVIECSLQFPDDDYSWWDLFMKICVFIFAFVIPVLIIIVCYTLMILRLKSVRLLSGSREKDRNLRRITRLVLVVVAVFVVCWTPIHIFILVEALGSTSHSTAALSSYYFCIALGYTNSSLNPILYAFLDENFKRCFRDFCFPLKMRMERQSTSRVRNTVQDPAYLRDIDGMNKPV

SMILES | KOR Antagonist % Imax+/-SEM ([1]; normalized to nor-BNI) [%] | IC50 ([1]; versus EC90 of U50488H) [nM] | Emax (mu-opioid receptor (MOR)) [%] | EC50 (mu-opioid receptor (MOR)) [nM] | DOR Antagonist % Imax+/-SEM ([2]; normalized to naltrexone) [%] | EC50 [3] [nM] | IC50 ([2]; versus EC50 of SNC80) [nM] | other results
CC=C[C@@H]1[C@H]2CCC[C@]1(c1cccc(O)c1)CCN2CCc1ccccc1 (stereo in doubt) [Compound 23, 3-((1R,5S,9S)-2-Phenethyl-9-((E)-prop-1-en-1-yl)-2-azabicyclo[3.3.1]nonan-5-yl) phenol] | 114.8 ± 11.2 | 238 ± 52.6 | 101 | 0.07 | 74.5 ± 2.3 | > 10000 | – | MOR potency relative to morphine (mu-opioid receptor (MOR)): 30 fold; IC50 [2]: 9.69 ± 2.23 nM
C=C[C@H]1[C@H]2CCC[C@]1(c1cccc(O)c1)CCN2CCc1ccccc1 [Compound 13, 3-((1R,5S,9R)-2-Phenethyl-9-vinyl-2-azabicyclo[3.3.1]nonan-5-yl) phenol] | 97.1 ± 9.2 | 74 ± 30.5 | – | 1.44 | 119.1 ± 15.5 | – | 113 ± 43.6 | effect on ventilatory ratio (squirrel monkeys [4]): decreased ventilatory ratio; antinociceptive effects (squirrel monkeys [5]): had antinociceptive effects in vivo; Ki (MOR [6]): 0.5 nM; MOR Agonist % Emax+/-SEM (mu-opioid receptor (MOR)): 1.44 ± 0.48 (94.7 ± 3.1%); Emax (MOR [7]): 20.1%
C=C[C@H]1[C@@H]2CCC[C@@]1(c1cccc(O)c1)CCN2CCc1ccccc1 [Compound 19, 3-((1S,5R,9R)-2-Phenethyl-9-vinyl-2-azabicyclo[3.3.1]nonan-5-yl) phenol] | – | – | – | – | – | – | – | KOR Antagonist % Imax+/-SEM [1]: 28.39 ± 4.24 (104.9 ± 11.2%); KOR antagonist (result in words) [1]: weak DOR and KOR antagonist; IC50 [1]: 28.4 nM; DOR Antagonist % Imax+/-SEM [2]: 143.65 ± 41.03 (201.4 ± 35.9%); DOR antagonist (result in words) [2]: weak DOR and KOR antagonist; IC50 [2]: 144 nM
CCC=C[C@H]1[C@@H]2CCC[C@@]1(c1cccc(O)c1)CCN2CCc1ccccc1 (stereo in doubt) [Compound 34, 3-((1S,5R,9R)-9-((E)-but-1-en-1-yl)-2-phenethyl-2-azabicyclo[3.3.1]nonan-5-yl) phenol] | 98.2 ± 2.3 | 0.79 ± 0.28 | – | – | 211.5 ± 24.7 | – | 8.22 ± 2.44 | KOR antagonist (result in words) [1]: moderately potent KOR antagonist; DOR antagonist (result in words) [2]: potent DOR antagonist
CC=C[C@H]1[C@H]2CCC[C@]1(c1cccc(O)c1)CCN2CCc1ccccc1 (stereo in doubt) [Compound 22, 3-((1R,5S,9R)-2-phenethyl-9-((E)-prop-1-en-1-yl)-2-azabicyclo[3.3.1]nonan-5-yl) phenol] | 111.6 ± 7.9 | 35 ± 9.72 | – | 2.61 | 143.3 ± 11.9 | – | 113 ± 19.8 | effect on ventilatory ratio (squirrel monkeys [4]): slightly lessor effects on ventilatory ratio; respiratory effects compared with morphine (squirrel monkeys [4]): lessor respiratory effects; antinociceptive effects (squirrel monkeys [5]): had antinociceptive effects; MOR Agonist % Emax+/-SEM (mu-opioid receptor (MOR)): 2.61 ± 0.64 (89.5 ± 2.9%); Emax (MOR [7]): 18%
CC=C[C@H]1C2CCC[C@@]1(c1cccc(O)c1)CCN2CCc1ccccc1 (stereo in doubt) [Compound 26, 3-((1R,5R,9R)-2-Phenethyl-9-((E)-prop-1-en-1-yl)-2-azabicyclo[3.3.1]nonan-5-yl) phenol] | 126.7 ± 2.6 | 4.02 ± 0.25 | – | – | 142.5 ± 23.7 | – | 7.52 ± 2.93 | KOR antagonist (result in words) [1]: moderately potent KOR antagonist
CC=C[C@@H]1C2CCC[C@@]1(c1cccc(O)c1)CCN2CCc1ccccc1 (stereo in doubt) [Compound 27, 3-((1R,5R,9S)-2-Phenethyl-9-((E)-prop-1-en-1-yl)-2-azabicyclo[3.3.1]nonan-5-yl) phenol] | 111.8 ± 2.2 | 163 ± 37 | 57.5 | 4.66 | – | 60.5 ± 3.74 | – | Emax [3]: 66.7%
C=C[C@@H]1[C@H]2CCC[C@]1(c1cccc(O)c1)CCN2CCc1ccccc1 [Compound 14, 3-((1R,5S,9S)-2-Phenethyl-9-vinyl-2-azabicyclo[3.3.1]nonan-5-yl) phenol] | 101.8 ± 19.1 | 19.8 ± 9.71 | 67.3 | 2.12 | – | 57 ± 21.4 | – | effect on ventilatory ratio (squirrel monkeys [4]): without selective effects on ventilatory ratio; respiratory effects compared with morphine (squirrel monkeys [4]): lessor respiratory effects; antinociceptive effects (squirrel monkeys [5]): antinociceptive effects in some, but not all animals; Emax (MOR [7]): 10.5%; Emax [3]: 22.6%
CCC=C[C@H]1[C@H]2CCC[C@]1(c1cccc(O)c1)CCN2CCc1ccccc1 (stereo in doubt) [Compound 29, 3-((1R,5S,9R)-9-((E)-but-1-en-1-yl)-2-phenethyl-2-azabicyclo[3.3.1]nonan-5-yl) phenol] | 109.5 ± 8.3 | 328 ± 96.9 | 95.8 | 11.6 | 166.6 ± 40.0 | – | 69 ± 4.83 | –
CCC=C[C@@H]1[C@H]2CCC[C@]1(c1cccc(O)c1)CCN2CCc1ccccc1 (stereo in doubt) [Compound 30, 3-((1R,5S,9S)-9-((E)-but-1-en-1-yl)-2-phenethyl-2-azabicyclo[3.3.1]nonan-5-yl) phenol] | 103.8 ± 9.2 | 283 ± 46.4 | 89.8 | 14.8 | 182.3 ± 56.4 | – | 3220 ± 572 | –
C=C[C@@H]1[C@@H]2CCC[C@@]1(c1cccc(O)c1)CCN2CCc1ccccc1 [Compound 18, 3-((1S,5R,9S)-2-Phenethyl-9-vinyl-2-azabicyclo[3.3.1]nonan-5-yl) phenol] | 105.6 ± 4.6 | 128 ± 48.2 | 46.6 | 3.94 | – | 122 ± 47.1 | – | Emax [3]: 40.6%
CCC=C[C@@H]1[C@@H]2CCC[C@@]1(c1cccc(O)c1)CCN2CCc1ccccc1 (stereo in doubt) [Compound 33, 3-((1S,5R,9S)-9-((E)-but-1-en-1-yl)-2-phenethyl-2-azabicyclo[3.3.1]nonan-5-yl) phenol] | 96.2 ± 0.9 | 12.2 ± 2.49 | – | – | 226.1 ± 14.0 | – | 520 ± 144 | –
